Measurements reported in article PMC5732813, “Novel piplartine-containing ruthenium complexes: synthesis, cell growth inhibition, apoptosis induction and ROS production on HCT116 cells” (Oncotarget, 2017).
Where two headings read alike, the source gives them in different places.

Key:
[1] = system: SCC-4 (human oral squamous cell carcinoma); assay: Cytotoxic activity, alamar blue assay, SCC-4; assay type: cell-based; details: for more potent than metal-free piplartine: SCC4, IC50 72h
Description: (§1) HCT116 (human colon carcinoma), HepG2 (human hepatocellular carcinoma), HSC-3 (human oral squamous cell carcinoma), SCC-4 (human oral squamous cell carcinoma), SCC-9 (human oral squamous cell carcinoma), HL-60 (human promyelocytic leukemia), K-562 (human chronic myelogenous leukemia), B16-F10 (murine melanoma), MRC-5 (human lung fibroblast), WT SV40 MEF (wild-type immortalized mouse embryonic fibroblast) and BAD KO SV40 MEF (BAD gene knockout immortalized mouse embryonic fibroblast) cell lines were obtained from the American Type Culture Collection (ATCC, Manassas, VA, USA) and cultured in RPMI-1640 medium (Gibco-BRL, Gaithersburg, MD, USA) with 10% fetal bovine serum (Life, Carlsbad, CA, USA), 2 mM L-glutamine (Vetec Química Fina, Duque de Caxias, RJ, Brazil) and 50 μg/mL gentamycin (Life, Carlsbad, CA, USA). Adherent cells were collected by treatment with 0.25% trypsin EDTA solution (Gibco-BRL, Gaithersburg, MD, USA). All cell lines were cultured in flasks at 37°C in 5% CO2 and sub-cultured every 3-4 days to maintain exponential growth.
(§2) Cell viability was quantified using the alamar blue assay, according to Ahmed et al.. Cells were inserted in 96-well plates for all experiments (7 x 10^4 cells/mL for adherent cells or 3 x 10^5 cells/mL for suspended cells in 100 μL of medium). […] Negative controls received the vehicle that was used for diluting the compounds tested.

[2] = system: cancer multicellular spheroids formed from HCT116 cells; assay: 3D multicellular spheroids culture, alamar blue assay; assay type: cell-based, human; details: for more potent than metal-free piplartine: 3D spheroids of HCT116, IC50 72 h
Experimental: as §2
HCT116 cells were cultivated in 3D multicellular spheroids. Briefly, 100 μL of a solution of cells (0.5 x 10^6 cells/mL) were inserted in 96-well plate with a cell-repellent surface (Greiner Bio-One, Kremsmünster, Austria) and cultured in RPMI 1640 medium with 10% fetal bovine serum, 2 mM glutamine, 3% matrigel (BD Biosciences, San Jose, CA, EUA) and 50 μg/mL gentamycin at 37°C with 5% CO2. […] Negative control received the vehicle that was used for diluting the compounds tested. In the end of the experiment, morphological changes were examined by light microscopy (Olympus BX41, Tokyo, Japan) using Image-Pro software (Media Cybernetics, Inc. Silver Spring, USA) and the cell viability was determined by alamar blue assay as described above.

[3] = system: K-562 (human chronic myelogenous leukemia); assay: Cytotoxic activity, alamar blue assay, K-562; assay type: cell-based; details: for more potent than metal-free piplartine: K562, IC50 72h
Description: as §1, §2

[4] = system: HSC-3 (human oral squamous cell carcinoma); assay: Cytotoxic activity, alamar blue assay, HSC-3; assay type: cell-based; details: for more potent than metal-free piplartine: HSC3, IC50 72h
Description: as §1, §2

[5] = system: B16-F10 (murine melanoma); assay: Cytotoxic activity, alamar blue assay, B16-F10; assay type: cell-based; details: for more potent than metal-free piplartine: B16-F10, IC50 72h
Description: as §1, §2

[6] = system: WT SV40 MEF (wild-type immortalized mouse embryonic fibroblast); assay: Cytotoxic activity, alamar blue assay, WT SV40 MEF; assay type: cell-based
Description: as §1, §2

[7] = 3D spheroids of HCT116, 72 h treatment, alamar blue, read-out: IC50
[8] = WT SV40 MEF, 72 h incubation, alamar blue, read-out: IC50

Molecule	more potent than metal-free piplartine [1]	IC50 [2, 7]	more potent than metal-free piplartine [2]	more potent than metal-free piplartine [3]	more potent than metal-free piplartine [4]	more potent than metal-free piplartine [5]	IC50 [6, 8]	Selectivity index (SI) ([1]; SI = IC50[MRC-5]/IC50[SCC-4])	Selectivity index (SI) ([1]; SI = IC50[PBMC]/IC50[SCC-4])	Selectivity index (SI) ([3]; SI = IC50[MRC-5]/IC50[K-562])	Selectivity index (SI) ([3]; SI = IC50[PBMC]/IC50[K-562])	Selectivity index (SI) ([4]; SI = IC50[MRC-5]/IC50[HSC-3])	Selectivity index (SI) ([4]; SI = IC50[PBMC]/IC50[HSC-3])	Selectivity index (SI) ([5]; SI = IC50[MRC-5]/IC50[B16-F10])	Selectivity index (SI) ([5]; SI = IC50[PBMC]/IC50[B16-F10])	further results
[Ru(piplartine)(dppb)(bipy)](PF6)2 [Complex 2]	3 fold	8.3 µM	~2 fold	3 fold	6 fold	3 fold	6 µM	–	–	–	–	–	–	–	–	–
COc1cccc2c1C(=O)c1c(O)c3c(c(O)c1C2=O)C[C@@](O)(C(=O)CO)C[C@@H]3O[C@H]1C[C@H](N)[C@H](O)[C@H](C)O1 [Doxorubicin]	–	–	–	–	–	–	–	–	–	–	–	–	–	–	–	IC50 ([2]; Homo sapiens, HCT-116, 3D spheroids of HCT116, 72 h treatment, alamar blue, read-out: IC50): 6.3 µM; IC50 ([5]; Mus musculus, B16-F10, 72h of incubation, alamar blue, with 95% confidence interval): 0.02 µM; IC50 ([6]; Mus musculus, Fibroblast, WT SV40 MEF, 72 h incubation, alamar blue, read-out: IC50): 0.04 µM
COc1cc(/C=C/C(=O)N2CCC=CC2=O)cc(OC)c1OC [Piplartine]	–	–	–	–	–	–	–	1.1	2.2	0.9	1.8	2.3	4.6	1.6	3.2	IC50 ([2]; Homo sapiens, HCT-116, 72 h): 22.1 µM; IC50 ([3]; Homo sapiens, K562, 72 h): 18.6 µM; IC50 ([6]; Mus musculus, Fibroblast, 72 h): 4.5 µM
[Ru(piplartine)(dppf)(bipy)](PF6)2 [Complex 1]	5 fold	7.3 µM	approximately 3 fold	5 fold	12 fold	4 fold	2.4 µM	1.1	0.6	1.0	0.5	5.7	3.0	1.2	0.6	–
